From PubChem BioAssay AID1963854 (Molecular Pharmacology Branch, DTP, NCI, 2024)

Tested on: 186277-243-T-J2-PDC complex spheroid viability
Experiment: Anticancer human tumor 186277-243-T-J2-PDC patient-derived colon adenocarcinoma cell line growth inhibition [POLQ]
Conditions: for IC50: curve of first compound; for viability, T/C: stronger effect = lower value
Description: Multicellular complex tumor spheroid response to Polymerase (POL) inhibitors (novobiocin, ART-558, RP6685) in combination with a variety of drugs and investigational agents in selected tumor cell lines
The POL inhibitors (novobiocin, ART-558, and RP6685) were evaluated both individually and in combination with standard of care and investigational anticancer small molecules within a complex spheroid model of solid tumors. . Complex spheroids include a stromal component modeled by human endothelial cells (HUVEC) and fibroblasts modeled by human mesenchymal stem cells (MSCs). The concentration ranges selected for each drug and investigational agent were based upon clinically achievable concentrations if the clinical Cmax of the agent was known.
Compounds. The drugs and investigational agents: novobiocin (NSC847541), ART-558 (NSC835418), RP-6685 (NSC848927), peposertib (NSC802822), ceralasertib (NSC780249), elimusertib (NSC800525), camonsertib (NSC841442), AZD-1390 (NSC803789), olaparib (NSC753686), talazoparib (NSC767125), rucaparib (NSC756644), sotorasib (NSC818433), MRTX-1133 (NSC836407), SN-38 (NSC673596), topotecan (NSC609699), epotoside (NSC141540), doxorubicin (NSC123127), gemcitabine (NSC613327), 5-fluorouracil (NSC19893), paclitaxel (NSC125973), vemurafenib (NSC761431), MSA-2 (NSC828583), SN-011 (NSC837082), adavosertib (NSC754352), prexasertib (NSC758257), carboplatin (NSC241240) and oxaliplatin (NSC266046), were obtained from the National Cancer Institute (NCI) Developmental Therapeutics Program Chemical Repository (21). The FDA-approved anticancer drug set is available from the Developmental Therapeutics Program at https://dtp.cancer.gov/organization/dscb/obtaining/. […] The stock solutions were prepared in dimethyl sulfoxide (DMSO, Sigma-Aldrich, St. Louis, MO, cat. D2650), except for the platinum compounds which were prepared in saline (Quality Biological, Gaithersburg, MD, cat. 114-055-101), at 800-fold the tested concentration and stored at -70 degrees C prior to their use. All drugs and investigational agents were tested over a range starting from a high concentration at or near the clinical Cmax and decreasing in half-log increments. If the clinical Cmax for an agent had not been determined, the highest concentration tested was 10 microM, except for SN-38, which was tested at a high concentration of 1 microM.
Cell Culture. All cells were maintained in an incubator at 37 degrees C and 5% CO2 with 95% humidity. The PDC lines were cultured according to standard operating procedures established by the NCI PDMR (https://pdmr.cancer.gov). Table 3 of the manuscript, lists the cell lines along with the number of the three cell types plated to form the mct-spheroids and media for tumor cell growth. After thawing, all PDC lines, except 997537-175-T-J1-PDC and 415267-285-R-J2-PDC, were cultured in Matrigel-coated flasks prepared with a working solution of 1X Ham's F-12 nutrient mix, without supplementation (Thermo Fisher Scientific, cat. 11765054), 100 U/mL penicillin-streptomycin (Thermo Fisher Scientific, cat. 15140122), and 2.5% Matrigel (Corning Inc., Corning, NY, cat. 354248) for the first three passages. The two PDC lines 997537-175-T-J1-PDC and 415267-285-R-J2-PDC were cultured on uncoated flasks. The 857933-349-R-J2-PDC line was cultured in 6C/Colon 1B media containing advanced DMEM/F-12 (Thermo Fisher Scientific, cat. 12634028), 10 mM HEPES (Thermo Fisher Scientific, cat. 15630080), 1X GlutaMAX supplement (Thermo Fisher Scientific, cat. 35050061), 0.1 mg/mL primocin (InvivoGen, San Diego, CA, cat. ant-pm-2), 10% defined fetal bovine serum, heat inactivated (HyClone Laboratories Inc., Logan, UT, cat. SH30070.03HI), 50% L-WRN conditioned media (ATCC, cat. CRL-3276), 1.25 mM N-Acetyl-L-cysteine (Sigma-Aldrich, cat. A9165), 10 mM nicotinamide (Sigma-Aldrich, cat. N0636), 1X B-27 supplement (Thermo Fisher Scientific, cat. 17504044), 1X N-2 supplement (Thermo Fisher Scientific, cat. […]
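Also: spheroids exposed to compounds for seven days.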
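For viability, T/C in this document: 100% = DMSO vehicle control viability.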

CC(=O)O[C@H]1C(=O)[C@@]2(C)[C@H]([C@H](OC(=O)c3ccccc3)[C@]3(O)C[C@H](OC(=O)[C@H](O)[C@@H](NC(=O)c4ccccc4)c4ccccc4)C(C)=C1C3(C)C)[C@]1(OC(C)=O)CO[C@@H]1C[C@@H]2O + COC1C(OC(N)=O)C(O)C(Oc2ccc3c(O)c(NC(=O)c4ccc(O)c(CC=C(C)C)c4)c(=O)oc3c2C)OC1(C)C gave an IC50 (second compound 0.0316 µM) of under 9.49 nM, an IC50 (second compound 0.1 µM) of under 9.49 nM and an IC50 (second compound 0.316 µM) of under 9.49 nM. For the same molecule, the IC50 (second compound 1 µM) was under 9.49 nM, the IC50 (second compound 3.16 µM) was under 9.49 nM and the IC50 (second compound 10 µM) was under 9.49 nM. It also gave a viability, T/C (second compound 0.0316 µM, first compound 0.00949 µM) of 18.8%, a viability, T/C (second compound 0.0316 µM, first compound 0.03 µM) of 6.51% and a viability, T/C (second compound 0.0316 µM, first compound 0.0949 µM) of 3.77%. The viability, T/C (second compound 0.0316 µM, first compound 0.3 µM) was 2.87%, the viability, T/C (second compound 0.0316 µM, first compound 0.949 µM) was 2.1% and the viability, T/C (second compound 0.0316 µM, first compound 3 µM) was 2.04%. For the same molecule, the viability, T/C (second compound 0.1 µM, first compound 0.00949 µM) was 17.1%, the viability, T/C (second compound 0.1 µM, first compound 0.03 µM) was 5.55% and the viability, T/C (second compound 0.1 µM, first compound 0.0949 µM) was 3.16%. The viability, T/C (second compound 0.1 µM, first compound 0.3 µM) was 3.36%, the viability, T/C (second compound 0.1 µM, first compound 0.949 µM) was 2.39% and the viability, T/C (second compound 0.1 µM, first compound 3 µM) was 2.52%. It also gave a viability, T/C (second compound 0.316 µM, first compound 0.00949 µM) of 20.7%, a viability, T/C (second compound 0.316 µM, first compound 0.03 µM) of 5.59% and a viability, T/C (second compound 0.316 µM, first compound 0.0949 µM) of 3.78%. The viability, T/C (second compound 0.316 µM, first compound 0.3 µM) was 2.55%, the viability, T/C (second compound 0.316 µM, first compound 0.949 µM) was 2.77% and the viability, T/C (second compound 0.316 µM, first compound 3 µM) was 2.42%. The viability, T/C (second compound 1 µM, first compound 0.00949 µM) was 19%, the viability, T/C (second compound 1 µM, first compound 0.03 µM) was 5.89% and the viability, T/C (second compound 1 µM, first compound 0.0949 µM) was 3.25%. It also gave a viability, T/C (second compound 1 µM, first compound 0.3 µM) of 3.12%, a viability, T/C (second compound 1 µM, first compound 0.949 µM) of 2.59% and a viability, T/C (second compound 1 µM, first compound 3 µM) of 2.05%. For the same molecule, the viability, T/C (second compound 3.16 µM, first compound 0.00949 µM) was 17%, the viability, T/C (second compound 3.16 µM, first compound 0.03 µM) was 6.12% and the viability, T/C (second compound 3.16 µM, first compound 0.0949 µM) was 3.2%. It also gave a viability, T/C (second compound 3.16 µM, first compound 0.3 µM) of 2.83%, a viability, T/C (second compound 3.16 µM, first compound 0.949 µM) of 3.06% and a viability, T/C (second compound 3.16 µM, first compound 3 µM) of 2.28%. It also gave a viability, T/C (second compound 10 µM, first compound 0.00949 µM) of 19.6%, a viability, T/C (second compound 10 µM, first compound 0.03 µM) of 5.72% and a viability, T/C (second compound 10 µM, first compound 0.0949 µM) of 3.65%. It also gave a viability, T/C (second compound 10 µM, first compound 0.3 µM) of 2.92%, a viability, T/C (second compound 10 µM, first compound 0.949 µM) of 2.88% and a viability, T/C (second compound 10 µM, first compound 3 µM) of 2.55%.
